# Laboratory results taken from publication PMC10952897, “The Role of Cytochrome P450 AbyV in the Final Stages of Abyssomicin C Biosynthesis” (Angewandte Chemie (Weinheim an Der Bergstrasse, Germany), 2022).
# Target: T1, AbyV (Micromonospora maris, UniProt F4F6Q5)
# T1 construct: N-terminal His6 tag (pOPINF::abyV), E. coli BL21(DE3)
# Assay: titration of substrate into buffered AbyV solution
# Assay type: binding
# T1 sequence (F4F6Q5 entry or part of it): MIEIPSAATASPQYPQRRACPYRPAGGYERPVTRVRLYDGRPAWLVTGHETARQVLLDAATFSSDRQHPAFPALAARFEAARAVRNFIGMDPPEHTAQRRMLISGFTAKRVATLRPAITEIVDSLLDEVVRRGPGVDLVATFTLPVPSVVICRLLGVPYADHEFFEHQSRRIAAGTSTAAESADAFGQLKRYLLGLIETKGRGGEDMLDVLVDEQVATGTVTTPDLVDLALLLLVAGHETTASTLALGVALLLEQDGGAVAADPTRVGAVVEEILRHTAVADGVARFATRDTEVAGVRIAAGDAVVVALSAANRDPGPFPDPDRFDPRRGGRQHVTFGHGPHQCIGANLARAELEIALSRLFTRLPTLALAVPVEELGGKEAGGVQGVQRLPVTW
compound,measurement,value
"C[C@@H]1C[C@H](C)C(=O)/C=C/[C@@H]2C=C[C@H](C)C[C@@]23OC(=O)C(=C3O)C1=O (mixture of isomers) [compound 3, spirotetronate 3]",Kd,34 ± 7 µM
